We go through twelve compounds from ChEMBL document CHEMBL1201862, “PubChem BioAssay data set” (2004).

A short description of assay [1]: viability of uninfected HEp-2 cells – cell-based, HTS, cytotoxicity control for RSV inhibitor project, dose response (AID 2410). In kind it is functional. The settings on record: human respiratory syncytial virus.
Another assay concerns the target Prothrombin (Homo sapiens, UniProt P00734). The assay is described as follows: Thrombin 1536 HTS Dose Response Confirmation. [Related pubchem assays: 1046 (Thrombin 1536 HTS; hits were confirmed in this assay)]. In kind it is functional.
Assay [2] has as its target T1, Probable nicotinate-nucleotide adenylyltransferase (Staphylococcus aureus (strain N315), UniProt P65502). Format: functional, Staphylococcus aureus subsp. aureus N315.
Assay [3] addresses T1, Probable nicotinate-nucleotide adenylyltransferase. In kind it is functional, Staphylococcus aureus subsp. aureus N315. Conditions: read-out: IC50_Mean.
A short description of assay [4]: luciferase reporter signal suppression in cells – H4 neuroglioma cells, luminescence, dose response (AID 1990). In kind it is functional, cell-based.
A short description of assay [5]: Luminescence Cell-Based Dose Response HTS to Identify Inhibitors of 5'UTR Stem-Loop Driven Prion Protein mRNA Translation in H4 Neuroglioblastoma Cells. [Related pubchem assays: 1827 (Project Summary), 1813 (Primary HTS)]. Format: functional.
The nature of assay [6]: alpha-synuclein stem-loop luciferase translation blockers – H4 neuroglioma cells, luminescence, confirmation (AID 1988). In kind it is functional, cell-based.
The subject of another assay is HEK293. The assay can be described thus: EBV LMP1 TES2 canonical NF-kB signalling blockers – cell-based, HEK293, luciferase, cherry-pick, dose response (AID 588343). Format: functional. Conditions: Homo sapiens.
A short description of assay [7]: blockers of bursicon-stimulated LGR2 cAMP reporter – cell-based, HEK293, CRE-luciferase reporter, cherry pick, set 2, dose response (AID 743343).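 Also: transfected cells were stimulated with diluted bursicon conditioned medium after compound addition.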 In kind it is functional. Background: In a reporter assay the amount or activity of a reporter protein is the signal.
Assay [8] can be described thus: blockade of melanocortin 4 receptor signaling – cell-based, plate reader, cherry pick, counter-screen for LGR2 antagonist project, dose response (AID 743444).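 Also: transfected HEK 293 cells stimulated with alpha-MSH peptide; potency of inhibitors of the alpha-MSH evoked signal.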 Format: functional.
Assay [9] is described as follows: viability loss in HEK293 cells – cell-based, plate reader, cherry-picked samples, cytotoxicity control, dose response (AID 743446). In kind it is functional.
The target in assay [10] is Glucose-6-phosphate 1-dehydrogenase (Homo sapiens, UniProt P11413). The assay is described as follows: inhibition of Homo sapiens G6PD, dose series – biochemical, fluorescence, selectivity assay for P. falciparum G6PD inhibitor project, dose response (AID 504792). Format: functional.
The target of assay [11] is T2, Replicative DNA helicase DnaB (Mycobacterium tuberculosis, UniProt P9WMR3).
T2 sequence (P9WMR3 whole entry): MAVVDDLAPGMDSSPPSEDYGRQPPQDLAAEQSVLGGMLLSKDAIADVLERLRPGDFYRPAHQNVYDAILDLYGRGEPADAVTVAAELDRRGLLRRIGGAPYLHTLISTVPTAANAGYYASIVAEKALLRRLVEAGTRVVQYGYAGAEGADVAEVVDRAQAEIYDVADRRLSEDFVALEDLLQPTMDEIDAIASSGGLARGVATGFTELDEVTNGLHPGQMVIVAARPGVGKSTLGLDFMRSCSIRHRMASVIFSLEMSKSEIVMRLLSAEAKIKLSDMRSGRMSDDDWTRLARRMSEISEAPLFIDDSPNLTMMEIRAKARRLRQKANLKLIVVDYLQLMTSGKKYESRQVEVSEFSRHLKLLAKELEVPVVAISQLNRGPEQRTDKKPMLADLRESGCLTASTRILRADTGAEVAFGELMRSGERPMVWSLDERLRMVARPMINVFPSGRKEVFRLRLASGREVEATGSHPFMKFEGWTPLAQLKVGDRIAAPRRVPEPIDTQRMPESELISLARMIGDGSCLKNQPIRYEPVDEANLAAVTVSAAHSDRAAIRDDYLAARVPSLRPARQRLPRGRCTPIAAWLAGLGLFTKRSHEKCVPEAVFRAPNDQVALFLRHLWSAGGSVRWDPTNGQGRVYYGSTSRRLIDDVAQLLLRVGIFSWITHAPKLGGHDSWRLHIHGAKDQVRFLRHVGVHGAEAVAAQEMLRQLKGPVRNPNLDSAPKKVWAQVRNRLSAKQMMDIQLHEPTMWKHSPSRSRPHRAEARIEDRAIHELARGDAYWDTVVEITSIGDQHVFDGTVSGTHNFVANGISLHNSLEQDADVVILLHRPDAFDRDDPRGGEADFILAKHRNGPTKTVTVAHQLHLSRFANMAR
The assay is described as follows: DnaB intein splicing inhibitors, dose response, biochemical, cell-free fluorescence (AID 449749). Format: functional.

Assay [12] deals with T3, Apoptotic protease-activating factor 1 (Homo sapiens, UniProt O14727).
T3 sequence (O14727 whole entry): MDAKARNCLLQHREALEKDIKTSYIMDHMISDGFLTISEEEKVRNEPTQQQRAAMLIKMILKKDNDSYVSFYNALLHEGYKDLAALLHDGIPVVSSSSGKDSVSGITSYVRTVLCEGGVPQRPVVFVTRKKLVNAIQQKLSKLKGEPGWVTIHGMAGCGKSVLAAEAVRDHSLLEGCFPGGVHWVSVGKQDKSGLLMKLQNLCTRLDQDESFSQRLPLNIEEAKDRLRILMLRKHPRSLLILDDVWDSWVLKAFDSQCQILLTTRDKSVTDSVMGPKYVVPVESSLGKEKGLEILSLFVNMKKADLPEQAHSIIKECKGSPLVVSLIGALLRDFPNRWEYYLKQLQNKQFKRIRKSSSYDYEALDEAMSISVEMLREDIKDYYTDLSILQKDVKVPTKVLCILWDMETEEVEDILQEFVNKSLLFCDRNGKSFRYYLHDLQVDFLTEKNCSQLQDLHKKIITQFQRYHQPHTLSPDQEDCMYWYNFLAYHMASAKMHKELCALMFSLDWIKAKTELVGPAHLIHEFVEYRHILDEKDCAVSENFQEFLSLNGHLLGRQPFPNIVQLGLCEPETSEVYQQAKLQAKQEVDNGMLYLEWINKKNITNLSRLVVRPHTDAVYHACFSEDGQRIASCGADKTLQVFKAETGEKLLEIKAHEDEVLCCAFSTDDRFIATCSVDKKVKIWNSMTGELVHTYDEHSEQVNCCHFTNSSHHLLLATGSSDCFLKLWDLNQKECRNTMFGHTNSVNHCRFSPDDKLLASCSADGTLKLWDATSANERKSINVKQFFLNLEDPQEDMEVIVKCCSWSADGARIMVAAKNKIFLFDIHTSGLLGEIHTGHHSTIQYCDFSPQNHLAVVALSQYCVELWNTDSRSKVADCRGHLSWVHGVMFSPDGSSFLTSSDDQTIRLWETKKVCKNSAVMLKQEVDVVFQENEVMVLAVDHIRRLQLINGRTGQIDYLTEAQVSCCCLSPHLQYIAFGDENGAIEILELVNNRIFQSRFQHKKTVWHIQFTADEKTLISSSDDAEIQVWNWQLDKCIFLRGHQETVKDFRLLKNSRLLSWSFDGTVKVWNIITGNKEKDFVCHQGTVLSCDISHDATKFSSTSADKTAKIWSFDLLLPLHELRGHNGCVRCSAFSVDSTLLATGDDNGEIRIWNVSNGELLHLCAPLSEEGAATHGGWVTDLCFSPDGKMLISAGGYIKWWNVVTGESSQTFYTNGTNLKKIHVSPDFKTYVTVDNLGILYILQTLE
In kind it is functional.

A further assay addresses T4, Protein RecA (Mycobacterium tuberculosis, UniProt P9WHJ3).
T4 sequence (P9WHJ3 whole entry): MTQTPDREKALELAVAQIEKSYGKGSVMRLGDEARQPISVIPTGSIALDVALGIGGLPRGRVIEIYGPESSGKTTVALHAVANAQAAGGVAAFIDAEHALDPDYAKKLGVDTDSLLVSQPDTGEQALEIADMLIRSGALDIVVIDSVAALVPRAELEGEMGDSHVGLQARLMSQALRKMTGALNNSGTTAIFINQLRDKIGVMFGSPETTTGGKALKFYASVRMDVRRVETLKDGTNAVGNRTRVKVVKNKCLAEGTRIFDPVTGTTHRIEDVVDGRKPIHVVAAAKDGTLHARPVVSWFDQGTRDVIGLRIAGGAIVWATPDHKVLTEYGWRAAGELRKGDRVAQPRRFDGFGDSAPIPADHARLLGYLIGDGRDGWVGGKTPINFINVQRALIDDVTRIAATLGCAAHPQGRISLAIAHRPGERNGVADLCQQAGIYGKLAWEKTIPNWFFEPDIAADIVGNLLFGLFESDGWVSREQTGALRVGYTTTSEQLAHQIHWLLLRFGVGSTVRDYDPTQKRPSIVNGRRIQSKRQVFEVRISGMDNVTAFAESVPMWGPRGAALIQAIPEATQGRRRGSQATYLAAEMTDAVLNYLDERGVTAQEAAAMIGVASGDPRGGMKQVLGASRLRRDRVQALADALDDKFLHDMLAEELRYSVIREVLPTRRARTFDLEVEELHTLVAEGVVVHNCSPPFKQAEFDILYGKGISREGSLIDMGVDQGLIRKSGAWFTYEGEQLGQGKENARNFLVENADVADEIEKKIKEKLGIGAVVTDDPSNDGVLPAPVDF
The assay can be described thus: Fluorescence Cell-Free Homogeneous Dose Retest to Identify Inhibitors of RecA-Intein Splicing Activity. [Related pubchem assays (depositor defined):AID2097, AID2223, AID489010, AID492950]. In kind it is functional.

The test system of a further assay is P388/ADR. The assay can be described thus: cells. Format: functional. Conditions: Mus musculus.
The subject of a further assay is SN12K1. The assay can be described thus: cells. In kind it is functional. The settings on record: Homo sapiens.
For a further assay, the system named is P388. The assay can be described thus: cells. Format: functional. Conditions: Mus musculus.
For assay [13], the target named is T5, Heat shock factor protein 1 (Mus musculus, UniProt P38532).
T5 sequence (P38532 whole entry): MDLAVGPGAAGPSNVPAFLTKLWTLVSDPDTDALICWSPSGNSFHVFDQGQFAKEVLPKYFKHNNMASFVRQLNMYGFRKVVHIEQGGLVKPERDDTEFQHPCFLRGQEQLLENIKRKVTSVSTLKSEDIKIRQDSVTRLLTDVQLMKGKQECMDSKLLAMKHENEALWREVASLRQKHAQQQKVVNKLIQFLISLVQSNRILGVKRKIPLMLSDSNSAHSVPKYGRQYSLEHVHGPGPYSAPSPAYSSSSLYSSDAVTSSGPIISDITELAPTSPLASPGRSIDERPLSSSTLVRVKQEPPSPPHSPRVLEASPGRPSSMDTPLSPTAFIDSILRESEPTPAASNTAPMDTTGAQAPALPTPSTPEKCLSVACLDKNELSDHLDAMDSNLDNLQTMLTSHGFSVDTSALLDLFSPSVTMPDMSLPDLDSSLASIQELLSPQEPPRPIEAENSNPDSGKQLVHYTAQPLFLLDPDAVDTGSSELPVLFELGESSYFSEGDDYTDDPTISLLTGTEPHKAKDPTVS
The assay is described as follows: enhancement of HSF1-driven luciferase signal – cell-based, NIH3T3, luminescence, dose retest, confirmation (AID 435004).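 Also: stress induced by proteasome inhibitor MG132 added 30 min after compound; luciferase reporter driven by HSF1 response element in NIH3T3 cells; actives raise luminescence as potentiators of the MG132 stress response.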 In kind it is functional.

Assay [14] addresses Disintegrin and metalloproteinase domain-containing protein 17 (Homo sapiens, UniProt P78536). The assay can be described thus: exosite inhibitors of ADAM17, dose response, biochemical (AID 743260).

Calls of active or inactive are those of the source. Some results are limits rather than exact numbers.
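For IC50 Mean in this document: confirmatory dose-response retesting of NadD inhibitor hits first found in an ultra-high-throughput screen.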

T1 sequence (P65502 whole entry): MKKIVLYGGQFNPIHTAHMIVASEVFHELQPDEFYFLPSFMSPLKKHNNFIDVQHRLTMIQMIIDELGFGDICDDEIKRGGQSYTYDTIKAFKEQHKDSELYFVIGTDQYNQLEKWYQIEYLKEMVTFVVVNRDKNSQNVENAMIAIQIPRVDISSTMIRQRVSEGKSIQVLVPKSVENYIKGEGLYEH
Sequence of Glucose-6-phosphate 1-dehydrogenase (P11413 whole entry): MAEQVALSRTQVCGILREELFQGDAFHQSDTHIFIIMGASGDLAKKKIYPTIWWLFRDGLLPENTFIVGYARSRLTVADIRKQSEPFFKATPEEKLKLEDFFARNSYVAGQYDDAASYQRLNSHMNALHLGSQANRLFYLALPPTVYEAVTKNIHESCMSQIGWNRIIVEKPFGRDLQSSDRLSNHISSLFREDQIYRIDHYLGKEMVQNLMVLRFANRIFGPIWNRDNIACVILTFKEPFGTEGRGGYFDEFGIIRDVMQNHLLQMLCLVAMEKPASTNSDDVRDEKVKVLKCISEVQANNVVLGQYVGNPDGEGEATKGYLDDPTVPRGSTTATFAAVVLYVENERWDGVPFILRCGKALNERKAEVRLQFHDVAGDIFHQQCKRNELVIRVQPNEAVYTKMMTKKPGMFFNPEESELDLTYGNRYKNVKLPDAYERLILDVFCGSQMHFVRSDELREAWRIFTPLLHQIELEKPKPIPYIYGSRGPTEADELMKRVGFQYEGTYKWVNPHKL
Sequence of Disintegrin and metalloproteinase domain-containing protein 17 (P78536 whole entry, the tested form may be a part): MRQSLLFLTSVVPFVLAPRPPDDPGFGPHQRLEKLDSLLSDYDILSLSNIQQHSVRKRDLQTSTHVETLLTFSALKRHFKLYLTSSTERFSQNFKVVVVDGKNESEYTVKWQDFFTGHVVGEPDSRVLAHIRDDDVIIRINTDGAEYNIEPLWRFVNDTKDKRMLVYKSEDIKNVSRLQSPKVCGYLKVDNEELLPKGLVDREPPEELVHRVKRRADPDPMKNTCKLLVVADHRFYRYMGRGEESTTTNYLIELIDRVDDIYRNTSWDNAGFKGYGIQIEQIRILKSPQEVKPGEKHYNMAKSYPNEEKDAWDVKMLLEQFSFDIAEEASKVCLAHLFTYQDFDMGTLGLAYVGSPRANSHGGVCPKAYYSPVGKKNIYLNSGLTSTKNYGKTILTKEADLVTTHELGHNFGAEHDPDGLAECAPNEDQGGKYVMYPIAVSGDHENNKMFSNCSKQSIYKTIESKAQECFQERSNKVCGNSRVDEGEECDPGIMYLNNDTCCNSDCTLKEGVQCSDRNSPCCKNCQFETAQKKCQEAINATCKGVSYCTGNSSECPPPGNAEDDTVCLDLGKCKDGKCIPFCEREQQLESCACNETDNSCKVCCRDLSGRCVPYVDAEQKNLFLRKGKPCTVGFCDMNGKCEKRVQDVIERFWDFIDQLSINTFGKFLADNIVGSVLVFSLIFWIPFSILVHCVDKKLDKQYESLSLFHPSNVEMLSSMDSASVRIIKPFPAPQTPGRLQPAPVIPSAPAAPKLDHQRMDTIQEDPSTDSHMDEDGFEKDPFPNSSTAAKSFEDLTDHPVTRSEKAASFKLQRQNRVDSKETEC

What is called CC50 is the concentration giving 50% cytotoxicity. With `Cn1c(SCC(=O)N2c3ccccc3CCc3ccccc32)nnc1-c1cc2ccccc2cc1O`, in [1], the CC50 was > 50 µM (active). The IC50 is > 50 µM (not active) at Prothrombin, 7.15 µM (active) in assay [2] and 24.5 µM (active) in assay [3].

`Cc1csc(SCC(=O)NCc2ccccc2Cl)n1`: the IC50 against Prothrombin is recorded as > 50 µM (not active).

One may read the EC50 as the concentration that produces a half-maximal response. The AC50 is the concentration at which the activity in the assay is half-maximal. Turning to `Cc1ccc(C(=O)Nc2ccc3c(c2)OCCO3)c(Cl)c1`, the EC50 was 6.61 µM (inconclusive) in assay [4], 5.14 µM (active) in assay [5] and 3.89 µM (active) in assay [6]. In addition, the half-maximal activity concentration (AC50) in the assay on HEK293 was 1.27 µM (active); in [7], 3.65 µM (active); in assay [8], 3.76 µM (active); in [9], > 52 µM (inactive).

Turning to `COc1ccc(OCC(=O)Nc2cccc3ncccc23)cc1`, the IC50 against Prothrombin is > 50 µM (not active).

On to `CC(=O)Nc1ccc(S(=O)(=O)[N-]C2=C(n3cc[n+](-c4ccccn4)c3)C(=O)c3ccccc3C2=O)cc1`, for which the IC50 in assay [10] was > 80 µM (inactive); in assay [12], 6.71 µM (active). In addition, the concentration at half-maximal activity (AC50) in assay [11] was 3.92 µM (active). On Protein RecA, the concentration giving a half-maximal response (EC50) was 3.46 µM (active).

Broadly, the GI50 is the concentration at which growth is held to half of that of the control. Turning to `CCCNC1=C(C)C(=O)C2=C(C1=O)[C@H](COC(N)=O)[C@]1(OC)[C@@H]3N[C@@H]3CN21`, the figures for the GI50 with P388/ADR, with SN12K1 and in the assay on P388 were 4.66 µM (inactive), 4.36 µM (inactive) and 0.32 µM (active), respectively.

On to `Cc1ccc(C(C)(C)C[P+](C)(c2ccccc2)c2ccccc2)cc1`, for which the GI50 in the assay with P388/ADR is > 100 µM (inactive); with SN12K1 it was 6.49 µM (inactive); in the assay with P388 it was 0.508 µM (active).

On to `COc1ccc2c(c1)c1c(C)c3cnccc3c(C)c1n2CCCN`, for which the GI50 in the assay with P388/ADR is 0.185 µM (active); in the assay with SN12K1, 0.102 µM (active); in the assay with P388, 0.0505 µM (active).

As for `CC(=O)Nc1cccc(/N=N/N(C)C)c1`, the GI50 was > 100 µM (inactive) with P388/ADR, > 57.5 µM (inactive) in the assay on SN12K1 and > 100 µM (inactive) in the assay on P388.

With `CCCC(O)C(NC(=O)CCl)C(=O)O` (configuration not stated), the GI50 with P388/ADR, in the assay with SN12K1 and in the assay with P388 was > 100 µM (inactive) in each case.

On to `CSCCC(NC(=O)C(Cc1ccccc1)NC(=O)CNC(=O)CNC(=O)C(N)Cc1ccc(O)cc1)C(=O)O` (configuration not stated), for which the GI50 in the assay on P388/ADR, in the assay with SN12K1 and in the assay on P388 was > 100 µM (inactive) throughout.

`COC(=O)c1cccc(Cn2c(Cl)c(/C=N/Nc3ccccc3C)sc2=O)c1`: the EC50 in [13] is 61.2 µM (active). Also, the IC50 in [14] is > 69.5 µM (inactive).
